Columns and labels:
Test in all cases: two-electrode voltage clamp, Xenopus oocytes
Format in all cases: cell-based
[1] = target: T1, AalbOR9 (Aedes albopictus, UniProt A0ABM1YMM4)
T1 sequence (A0ABM1YMM4 1-377): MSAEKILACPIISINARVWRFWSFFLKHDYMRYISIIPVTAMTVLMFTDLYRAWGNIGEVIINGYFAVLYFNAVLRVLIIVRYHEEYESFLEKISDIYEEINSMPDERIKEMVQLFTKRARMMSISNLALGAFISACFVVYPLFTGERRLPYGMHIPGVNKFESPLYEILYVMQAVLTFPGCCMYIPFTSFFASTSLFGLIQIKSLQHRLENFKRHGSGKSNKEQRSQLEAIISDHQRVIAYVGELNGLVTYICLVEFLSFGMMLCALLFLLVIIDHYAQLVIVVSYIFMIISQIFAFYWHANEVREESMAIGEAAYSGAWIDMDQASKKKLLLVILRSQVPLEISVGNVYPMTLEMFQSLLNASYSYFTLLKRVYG
T1 sequence (A0ABM1ZN50 1-479 partner): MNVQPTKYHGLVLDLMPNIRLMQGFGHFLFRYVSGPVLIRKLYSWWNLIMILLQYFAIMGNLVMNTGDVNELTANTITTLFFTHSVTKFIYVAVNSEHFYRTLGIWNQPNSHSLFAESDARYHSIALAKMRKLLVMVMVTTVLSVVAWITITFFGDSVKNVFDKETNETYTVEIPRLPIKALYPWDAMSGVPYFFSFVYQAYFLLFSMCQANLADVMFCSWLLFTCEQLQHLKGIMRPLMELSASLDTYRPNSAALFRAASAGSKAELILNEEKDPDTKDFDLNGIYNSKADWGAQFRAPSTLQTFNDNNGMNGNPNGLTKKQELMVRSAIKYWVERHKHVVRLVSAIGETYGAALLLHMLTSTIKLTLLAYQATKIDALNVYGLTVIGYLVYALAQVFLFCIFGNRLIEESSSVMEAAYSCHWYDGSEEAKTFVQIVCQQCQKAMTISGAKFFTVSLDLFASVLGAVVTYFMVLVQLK

[2] = target: T2, AalbOR10 (Aedes albopictus, UniProt A0ABM1Y0Z3)
T2 sequence (A0ABM1Y0Z3 1-403): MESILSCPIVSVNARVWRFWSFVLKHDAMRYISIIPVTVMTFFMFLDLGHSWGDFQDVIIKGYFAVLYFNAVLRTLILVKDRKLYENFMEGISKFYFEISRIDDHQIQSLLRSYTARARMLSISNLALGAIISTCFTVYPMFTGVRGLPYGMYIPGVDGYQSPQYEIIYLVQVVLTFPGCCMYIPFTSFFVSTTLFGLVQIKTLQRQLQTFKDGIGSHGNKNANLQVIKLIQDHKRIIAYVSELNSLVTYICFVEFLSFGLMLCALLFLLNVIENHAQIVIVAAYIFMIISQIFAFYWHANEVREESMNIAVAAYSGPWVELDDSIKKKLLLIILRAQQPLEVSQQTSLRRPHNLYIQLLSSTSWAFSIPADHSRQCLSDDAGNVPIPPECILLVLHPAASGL
T2 sequence (A0ABM1ZN50 1-479 partner): T1 sequence (A0ABM1ZN50 1-479 partner)

[3] = target: T3, AalbOR2 (Aedes albopictus, UniProt A0ABM1YVB6)
T3 sequence (A0ABM1YVB6 1-376): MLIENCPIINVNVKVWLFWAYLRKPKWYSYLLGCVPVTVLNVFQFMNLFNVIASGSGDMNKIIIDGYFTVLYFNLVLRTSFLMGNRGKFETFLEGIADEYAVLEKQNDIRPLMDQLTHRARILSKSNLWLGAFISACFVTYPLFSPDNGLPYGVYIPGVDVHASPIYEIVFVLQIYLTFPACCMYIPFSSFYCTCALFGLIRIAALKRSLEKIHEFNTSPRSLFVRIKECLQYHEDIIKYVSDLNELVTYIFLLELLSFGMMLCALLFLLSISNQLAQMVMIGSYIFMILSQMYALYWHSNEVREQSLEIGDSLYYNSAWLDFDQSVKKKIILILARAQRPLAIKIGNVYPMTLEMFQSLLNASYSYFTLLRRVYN
T3 sequence (A0ABM1ZN50 1-479 partner): T1 sequence (A0ABM1ZN50 1-479 partner)

EC50 [1] | EC50 [2] | EC50 [3] | SMILES
54 nM | 3900 nM | 10100 nM | Cc1c[nH]c2ccccc12 [skatole]
1700 nM | 23700 nM | 770 nM | c1ccc2[nH]ccc2c1 [indole]

Reference: publication doi:10.1101/2025.06.07.658027v2 (biorxiv, 2025)
